Test results taken from patent US20250144055A1, “METHOD AND COMPOSITION FOR REDUCING MYOPIA PROGRESSION” (THE HONG KONG POLYTECHNIC UNIVERSITY, priority 2023, published 2025).
Several values for one entry are separate records, joined by “and”; a condition that tells them apart may be missing. Identical values can stand only once. Like-named read-outs stand apart in the source and are kept apart here.

Legend:
[1] = test system: retinal ganglion cells (RGCs); settings: cited from earlier work
[2] = body weight of unilateral LIM chicks after 7-day LIM; format: in vivo, White Leghorn chicks (Gallus gallus); settings: after 7-day LIM (PN17), 74 μM intravitreal x4 days
Text: The present disclosure provides a method for reducing myopia progression by administering a therapeutically effective amount of celastrol via intravitreal injection to a vitreous or via a non-invasive route, such as topically to the eye, e.g., as an eye drop containing a therapeutically effective amount of celastrol administered to a cornea or conjunctiva of a subject's eye. […] Change of body weight before and after 7-day LIM and choroidal thickness of a uvea of the celastrol group after 2-hr removal of the lens from the unilateral LIM chicks following the 7-day LIM were also quantified to show no adverse side effect but an increase in choroidal thickness induced by a low-dose celastrol. […] For instance, if celastrol is administered via the intravitreal injection, based on the difference in vitreous volume between the animal model tested and the human being, the human equivalent dose of celastrol could be determined. Taking chicken's vitreous volume as an illustrative example, if the celastrol is administered at about 74 μM via intravitreal injection to the chicken's vitreous, assuming that the vitreous volume of a chicken in general is about 200 μl, based on an estimated human vitreous volume (about 4.5 ml), the human equivalent dose of celastrol via intravitreal injection is determined to be about 1.665 mM. […]

[3] = test system: lens-induced myopia (LIM) chicks; assay: unilateral lens-induced myopia (LIM) chick model, intravitreal injection; format: in vivo, White Leghorn chicks (Gallus gallus)
Protocol: To create a lens-induced myopia (LIM) animal model, concave lenses of −5 D were applied to the White Leghorn chicks (Gallus gallus), hatched from specific pathogen-free eggs (SPF, Jinan, China), until they were ten days old (PN10, baseline). All the animals were raised in standard cages at 25° C. with sufficient food and water daily under the 12 h:12 h light/dark cycle. The central ambient luminance over the cages was maintained at around 260 lux.
Turning to FIG. 1, starting from ten days old (PN10), the LIM chicks received four intravitreal injections in four consecutive days, i.e., PN10, PN11, PN12 and PN13 (s101). LIM chicks were randomly assigned to two groups, including LIM chicks (n=6) with vehicle injection (1% DMSO with 1% β-CDs) (101b) and LIM chicks (n=7) with celastrol injection (74 μM celastrol dissolved in 1% DMSO with 1% β-CDs) (101a), and no gender preference was selected in the experimental groupings. β-CDs were selected as a drug carrier of celastrol because of its doughnut-shaped cavities with hydrophilic outer and hydrophobic inner surfaces to form a complex with the celastrol to enhance the solubility, stability and permeation of celastrol in vivo. The freshly prepared solution (10 μl) was injected monocularly with a 0.3-mL syringe (31-gauge needle, BD Medical, Le Pont deClaix, France) into the vitreous through the sclera, choroid, and retina close to the margin of the upper orbit. Immediately following the first injection on PN10, the LIM chicks' right (or left) eyes were assigned to −5 D lenses (treated eyes 102a), and no lens was attached to the fellow eyes (control eyes 102b) (s102). The treated eyes 102a covered with lens in each LIM chick (unilateral LIM) received the subsequent celastrol injection 101a or vehicle 101b on PN11, PN12 and PN13, whereas there was no treatment for the contralateral (control) eye 102b.
After 7-day LIM (PN17), the lenses were removed for 2 hours (s103). The refractive error and ocular parameters were recorded separately at baseline (PN10), 7-day LIM (PN17), and after 2-hour recovery (PN17+2 hr) using the steak retinoscopy and high-frequency ultrasonography (s104). Refractive errors were detected using a streak retinoscope, and ocular parameters were measured using a high-frequency A-scan ultrasound system with a 30 MHz transducer (Panametrics, Inc., Waltham, MA), respectively, before and after treatments. The spherical equivalent (S.E.) was calculated from the refractive status (S.E.=spherical power+½ cylindrical power). Axial length (AL) was defined from the front of the cornea to the back of the vitreous chamber.
Biometric data obtained from unilateral LIM chicks treated with or without celastrol according to the scheme depicted in Example 1 and FIG. 1 were analyzed. First of all, after the 7-day lens treatment period (PN1, the interocular differences (differences between the lens-treated eyes and the contralateral fellow eyes) were calculated for the three ocular parameters (refractive error, vitreous chamber depth, and axial length), and the results are shown in FIGS. 2A-2C, respectively. Because choroid thickness change is believed to be an indicator of progression to myopia, the choroidal thickness was also measured after a 2-hour recovery, and the results are shown in FIG. 2D. The mean interocular differences and choroidal thickness changes are presented with ±SD. The significance between celastrol and vehicle groups was analyzed using an unpaired t-test with equal variance.

[4] = test system: neuroendocrine chromaffin cells; settings: 1 μM celastrol; cited from earlier work

## CC1=C(O)C(=O)C=C2C1=CC=C1[C@@]2(C)CC[C@@]2(C)[C@@H]3C[C@](C)(C(=O)O)CC[C@]3(C)CC[C@]12C [celastrol]
[1]; injection of 1 mg/kg celastrol
  increase in average number of retinal ganglion cells (RGCs) compared to controls: approximately 80%
[1]; injection of 5 mg/kg celastrol
  increase in average number of retinal ganglion cells (RGCs) compared to controls: ~78%
[2]
  body weight compared with vehicle group: no retardation of growth regarding body weight
[3]; 74 μM celastrol, 10 μl intravitreal q.d. PN10-PN13, after 7-day LIM (PN17), lens-treated minus fellow eye, n=7
  interocular difference in refractive error (spherical equivalent), mean±SD: −1.68±2.03 D
[3]; 74 μM intravitreal x4 days, after 2-hour recovery from 7-day LIM (PN17+2 hr), P=0.072 vs vehicle
  choroidal thickness change, mean±SD: 65.98±20.89 μm
[3]; 74 μM intravitreal x4 days, after 7-day LIM (PN17), A-scan, P=0.054 vs vehicle
  interocular difference in axial length (AL), mean±SD: 0.088±0.109 mm
[3]; 74 μM intravitreal x4 days, after 7-day LIM (PN17), A-scan, n=7
  interocular difference in vitreous chamber depth (VCD), mean±SD: 0.190±0.105 mm
[3]; Gallus gallus, 168 h, celastrol group vs vehicle group, 74 μM intravitreal, 7-day LIM, read-out: inhibition of myopia based on refractive error data
  inhibition at 74 µM: ~46.3%
[3]; after 7-day LIM (PN17)
  averaged shift of relative myopia in interocular difference, vehicle group versus celastrol group (mean): −1.45 D
[3]; after 7-day LIM (PN17), P>0.05
  enlargement of VCD in vehicle group compared with celastrol group: 0.070 mm
  numerical elongation of AL in vehicle group compared with celastrol group (mean): 0.174 mm
[3]; celastrol group vs vehicle group, 74 μM intravitreal, 7-day LIM
  inhibition of myopia based on axial length data: ~66.4% and ~46.2%
[3]; intravitreal injection at the dose tested (74 μM)
  myopia progression: could suppress myopia progression
[4]
  increase in dopamine: 6 fold
